Test results from patent publication US20090247495A1, “CU[…] AND USES THEREOF” (priority 2007, published 2009).
Values after ≈ are worked out from the molar mass of the structure shown.

Experiments:
[1] = system: colon cancer cell line (HT29); test: MTT cell cytotoxicity assay, HT29; format: cell-based, human; details: 48 hours
Protocol: (§1) Three human cancer cell lines (HepG2(liver), HT29(colon) and MCF-7(breast)) were purchased from American Type Culture Collection (ATCC, Manassas, Va., USA). The cells were cultured in RPMI 1640 medium supplemented with 5% (v/v) fetal bovine serum (FBS) and 100 units/ml penicillin and streptomycin (Invitrogen Life Technologies) in a humidified 5% CO2 atmosphere at 37° C.
The cytotoxic effect of CuB and CuD on these three cancer cell lines were determined using MTT (3-[4,5-dimethylthiazol-2-yl]-2,5-diphenyl tetrazolium bromide) labeled cell cytotoxicity assay. A total of 1×10^4 cells were seeded into a 96-well plate for 24 hours prior to cucurbitacin B (CuB) or cucurbitacin D (CuD) treatment. They were then treated with different dosages of CuB/CuD for 48 hours. After the treatment, 20 μl of MTT (5 mg/ml) was added to each well and incubated for 4 hrs. Then the medium was discarded and 100 μl of dimethyl sulfoxide was added. The absorbance at 570 nm was then measured by using FLUOstar OPTIMA equipment (BMG, LABTECH GmbH, Germany). The percentage of inhibition against different dosages of CuB/CuD were plotted using the Prism software and the 50% inhibition concentration (IC50) were obtained.

Stat3 = test: Western blot of Stat3 activation in HepG2, HT29 and MCF-7 cells; format: cell-based, human
Erk1/2 = test: Western blot of Erk1/2 in HepG2, HT29 and MCF-7 cells; format: cell-based, human
Protocol: (§2) The human cancer cells line were serum starved for 18 hours prior to CuB/CuD treatment. Cells were incubated in a 6-well plate filled with 5 ml growth medium (RPMI with 0.2% FBS and 1% PS) at the cell density of 1×10^5 cells/ml, in the presence or absence of two different dosages of CuB/CuD for various time intervals. The drug treatment was terminated by centrifugation at 1,500 rpm for 5 minutes and the cells were rinsed twice with phosphate-buffered saline and lysed at 4° C. in a lysis buffer containing 50 mM Tris-HCl, pH7.5, 100 mM NaCl, 5 mM EDTA, 40 mM NaP2O7, 1% Triton X-100, 1 mM dithiothreitol, 200 μM Na3VO4, 100 uM phenylmethysufonyl fluoride, 2 μg/ml leupeptin, 4 μg/ml aprotinin and 0.7 μg/ml pepstatin. The insoluble protein lysate were removed by centrifugation for 10 minutes at 13,000 rpm. Fifteen micrograms of protein lysate was resolved using 10% SDS-polyacryamide gel electrophoresis (PAGE) and then subjected to western blot anaylsis. Western blots were performed with anti-Stat3, anti-Erk1/2 and anti-hsp27 antibodies specific for phosphor- and total Stat3, Erk and hsp27 proteins. The protein bands were then visualized with the Enhanced Chemiluminescence Plus (ECL Plus) detection system (Amersham). • 6.2.8.1 Inhibition Effect Cucurbitacin B/Cucurbitacin D on Stat3 Activation in HepG2 and HT29 Cells
(§3) Cells were incubated either with CuB or CuD (25 ug/ml or the dosage of IC50) for various time intervals (5, 10 or 30 mins, 1 or 4 hours). The Stat3 activation was detected by western blot.

hsp27 = test: Western blot of hsp27 in HepG2, HT29 and MCF-7 cells; format: cell-based, human
Protocol: as §2, §3

melanoma = test: SRB growth inhibition, melanoma lines of the NCI panel; format: cell-based, human; details: 48 hours
Excerpt: Human cancer cell lines from the 59-NCI Cancer Cell Line Panel including leukemia, melanoma and cancers of breast, brain, colon, lung, ovary, prostate and kidney, were purchased from the National Institute of Cancer (USA). The growth inhibition (GI50) of these cell lines treated with cucurbitacin B and cucurbitacin D in various concentrations was investigated.
59 human cancer cell lines were maintained in RPMI 1640 (Invitrogen Life Technologies, CA, USA) supplemented with 5% Fetal Bovine Serum, 2 mM L-glutamine and 1% Penicillin/Streptomycin (Invitrogen Life Technologies) at 37° C. with 5% CO2. All chemicals were purchased from Sigma (St. Louis, Mo., USA) unless specified otherwise.
Sulforhodamine B (SRB) assay was applied to determine the cytostatic effect of cucurbitacin B and cucurbitacin D. SRB is a dye that binds to cellular proteins and will be dissolved in base. The biomass of total protein can be measured at 520 nm using a plate reader.
Cells were inoculated into 96-well microtiter plates including “Time zero” (Tz) plates in 100 μl at cell concentrations from 5000 to 40,000 cells per well according to NCI guideline. The cells were incubated at 37° C. with 5% CO2 for 24 hours. […] Bound SRB was solubilized with 100-200 ul per well of 10 mM trizma base and absorbance was measured at a wavelength of 520 nm. The percentage of growth inhibition was calculated as follows: […]

[2] = system: Human cancer cell lines from the 59-NCI Cancer Cell Line Panel; format: cell-based
[3] = system: Human cancer cell lines from the 59-NCI Cancer Cell Line Panel; test: Apoptosis (Annexin V-FITC / PI) by flow cytometry, 18 selected NCI panel cell lines; format: cell-based; details: 48 hours; GI50, ½ GI50 and ¼ GI50
Protocol: Apoptosis is the important mechanism for cell death in normal cells. In cancer cells, this mechanism fails and cells proliferate without control. Human cancer cell lines from the 59-NCI Cancer Cell Line Panel including leukemia, melanoma and cancers of breast, brain, colon, lung, ovary, prostate and kidney were purchased from the National Institute of Cancer. […] They were treated with cucurbitacin B and cucurbitacin D at three different concentrations to elucidate their ability to induce any changes in cell cycle.
Cancer cell lines were maintained in RPMI 1640 supplemented with 5% Fetal Bovine Serum, 2 mM L-glutamine and 1% Penicillin/Streptomycin at 37° C. with 5% CO2. Cells were inoculated into tissue culture flask at cell concentrations from 50000 to 400,000 cells/ml according to the NCI guideline. The cells were incubated at 37° C. with 5% CO2 for 24 hours. Cucurbitacin B and cucurbitacin D were added to the cells of final concentrations ranging from 6 to 350 nM (GI50, ½ GI50 and ¼ GI50 of particular cell line) for 48 hours at 37° C. with 5% CO2. Cells (3×10^5) were then harvested and stained with 5 μl Annexin V-FITC and 10 μl propidium iodine (Becton Dickinson, CA, USA) for 15 minutes at room temperature. Ten thousands events were collected by the FACScaliber and the percentage of different cell populations were analyzed by the CellQuest™ software (Becton Dickinson).

PARP = test: Western blot of PARP cleavage in HL60 cells; format: cell-based, human
Protocol: (§4) Control cells, as well as cells treated with cucurbitacin B or cucurbitacin D, were harvested and collected by centrifugation. Whole cell extracts were then prepared by lysing the cells using 4% sodium dodecyl sulfate (SDS) gel sample buffer. Cell extracts were boiled for 10 min and chilled on ice, subjected to 12% SDS-polyacrylamide gel electrophoresis, and transferred to a PVDF membrane. Each membrane was cut into to two pieces with one piece incubated at 4° C. overnight with antibodies against cell cycle signaling proteins, such as ERK, phosphorlated-ERK, p38, phosphorlated-p38, Cyclin E, Retinoblastoma, phosphalated-Retinoblastoma and c-myc, and apoptotic protein (PARP). β-actin was used as a control for protein loading. All antibodies were obtained from Cell signaling Technologies (USA). Then membranes were incubated at 37° C. for 1 h with secondary antibody conjugated with peroxidase, and the signal was detected using chemiluminescence detection reagent. The relative protein level was calculated as the ratio of the optical density of the protein of interest to that of β-actin.

MAPK signaling pathway = test: Western blot of MAPK / cell cycle signaling proteins in HL60 cells; format: cell-based, human
Protocol: as §4

[4] = system: Human liver cancer cell lines HepG2; test: MTT cytotoxicity assay, matrix combination of CuB and Sb on liver cancer cells; format: cell-based; details: HepG2, 2 days, CuB 0 μM
Protocol: as §1, with “Human liver” for “Three human”, “HepG2 was” for “(HepG2(liver), HT29(colon) and MCF-7(breast)) were”
A total of 1×10^4 cells were seeded into a 96-well plate for 24 hours prior to drug treatment. They were then treated with different dosages (a multiple of 20-fold of IC50 values) of CuB or Sb for 48 hours. After the treatment, 20 μl of MTT (5 mg/ml) was added to each well and incubated for 4 hrs. Then the medium was discarded and 100 μl of dimethyl sulfoxide was added. The absorbance at 570 nm was then measured by using FLUOstar OPTIMA equipment (BMG, LABTECH GmbH, Germany). The percentage of inhibition against different dosages of CuB or Sb were plotted using the Prism software and the 50% inhibition concentration (IC50) were obtained.
The cells were then treated for 2 days and the % inhibition of growth is determined.
The excess over Bliss additivism may be calculated using the following formula and shown in Table 4: • Bliss Additivism: Combined response=CuB+Sb−(CuB)(Sb) where each effect is expressed as fractional inhibition between 0 and 1 • Excess over additivism=observed response−combined response

Compound: CC(C)(O)/C=C/C(=O)[C@](C)(O)[C@H]1[C@H](O)C[C@@]2(C)[C@@H]3CC=C4[C@@H](C[C@H](O)C(=O)C4(C)C)[C@]3(C)C(=O)C[C@]12C [cucurbitacin D]
- IC50 [1]: 0.27 µg/mL (≈ 0.523 µM)
- Stat3 activation (Stat3; HepG2 cells and HT29 cells, 25 ug/ml, 30 minutes): inhibited significantly
- Stat3 activation (Stat3; MCF-7 cells): no significant change
- expression of Erk1/2 (Erk1/2; HT29, 5 minutes of treatment): up-regulated the expression of Erk1/2 significantly
- expression of Erk1/2 (Erk1/2; HepG2, 30 minutes of treatment): up-regulated the expression of Erk1/2 significantly
- Erk activation (Erk1/2; MCF-7 cells, 5 minutes): significant Erk activation
- Hsp27 activation (hsp27; HT29, 10 minutes): significant up-regulation
- Hsp27 activation (hsp27; HepG2, 30 minutes): significant up-regulation
- Hsp27 activation (hsp27; MCF-7, 4 hours): significant up-regulation
- GI50 (melanoma): 60 nM
- cell lines with G2/M arrest [2]: 9 out of 18
- cell cycle effect ([2]; SF-295, 48 hours): G2/M arrest and endoreduplication
- cell lines in which apoptosis was induced [3]: 11 out of 18
- apoptosis marker PARP (PARP): cleavage of PARP
- regulation of ERK, cyclin E, retinoblastoma phosphorylation and c-myc (MAPK signaling pathway): ERK activation, followed by cyclin E down-regulation, inhibition of retinoblastoma's phosphorylation, and ultimately down-regulation of c-myc

Compound: CNC(=O)c1cc(Oc2ccc(NC(=O)Nc3ccc(Cl)c(C(F)(F)F)c3)cc2)ccn1 [sorafenib, reference compound]
- % inhibition ([4]; Sb 0.1 μM): 4.61%
- Excess over Highest Single Agent Model ([4]; Sb 0.1 μM): 0
- % inhibition ([4]; Sb 0.3 μM): 27.69%
- Excess over Highest Single Agent Model ([4]; Sb 0.3 μM): 0
- % inhibition ([4]; Sb 0.9 μM): 39.10%
- Excess over Highest Single Agent Model ([4]; Sb 0.9 μM): 0
- % inhibition ([4]; Sb 2.7 μM): 35.35%
- Excess over Highest Single Agent Model ([4]; Sb 2.7 μM): 0
- % inhibition ([4]; Sb 8.4 μM): 82.28%
- Excess over Highest Single Agent Model ([4]; Sb 8.4 μM): 0
